# Measurements from patent US11000033B2, “Ketone or oxime compound, and herbicide” (NISSAN CHEMICAL CORPORATION, priority 2014, dated 2021).
# Legend:
# Type in all cases: in vivo
# [1] = test system: Veronica persica; assay: Test Example 5: herbicidal effect by foliage application, plastic box (symbol R); settings: 320 g/ha, 3 weeks after application
# Outline: (§1)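 Post-emergence spray; diluvial soil (sterilized), ~1.5 cm seed cover; greenhouse 25–30° C; 14-day-old plants; water-diluted emulsion at predetermined dose; visual score at 3 wk post-treatment.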
# [2] = test system: Setaria viridis; assay: Test Example 5: herbicidal effect by foliage application, plastic box (symbol G); settings: 320 g/ha, 3 weeks after application
# Outline: as §1
# [3] = test system: Scirpus juncoides; assay: Test Example 1: herbicidal activity, application before weed generation in submerged conditions (symbol B); settings: application herbicide amount 320 g/ha
# Outline: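 Greenhouse growth at 25–30 °C lasted 3 weeks after treatment, when each weed was graded 0–5 by herbicidal ratio. Treatment was a diluted emulsion applied to the water surface of 4 cm-submerged alluvial soil on the sowing day.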
# [4] = test system: Echinochloa crus-galli var. crus-galli; assay: Test Example 4: herbicidal effect by soil treatment (symbol H); settings: for H (Echinochloa crus-galli var. crus-galli) herbicidal effect grade: application herbicide amount 320 g/ha; for H: Echinochloa crus-galli var. crus-galli, herbicidal effect grade: 320 g/ha
# Outline: (§2)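 Seeds were sown in sterilized diluvial soil, covered with about 1.5 cm of soil, and the soil surface was sprayed with a water-diluted emulsion of the compound at a predetermined rate. Plants grew in a greenhouse at 25° C. to 30° C.; effects were scored visually 3 weeks after application.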
# [5] = test system: beet; assay: Test Example 4: effect on crop by soil treatment (symbol f); settings: for f (beet) effect on crop grade: application herbicide amount 320 g/ha; for f: beet, effect grade on crop: 320 g/ha
# Outline: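 Crop seed is sown in spots together with several weed species in a box of sterilized diluvial soil. It is covered by about 1.5 cm of soil and kept in a greenhouse held between 25° C. and 30° C.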
# [6] = test system: transplanted rice plant; assay: Test Example 1: effect on crop, application before weed generation in submerged conditions (symbol a); settings: application herbicide amount 320 g/ha
# Outline: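 Rice at 2.5 leaf stage transplanted into submerged soil (4 cm depth) sown with three weed species; herbicide applied before weed emergence.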
# [7] = test system: Amaranthus retroflexus; assay: Test Example 4: herbicidal effect by soil treatment (symbol N); settings: for N (Amaranthus retroflexus) herbicidal effect grade: application herbicide amount 320 g/ha; for N: Amaranthus retroflexus, herbicidal effect grade: 320 g/ha
# Outline: as §2
# [8] = test system: Leptochloa chinensis; assay: Test Example 3: herbicidal effect by foliage application, Wagner pot (symbol D); settings: application herbicide amount 320 g/ha
# Outline: (§3)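 Seeds sown in alluvial soil kept under 0.1–0.5 cm water, greenhouse 25–30 °C; 14 d growth. Leaves treated by small sprayer with water-diluted emulsion at a predetermined rate. Effect graded by set scale, 3 weeks.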
# [9] = test system: Lolium multiflorum Lam.; assay: Test Example 4: herbicidal effect by soil treatment (symbol K); settings: for K (Lolium multiflorum Lam.) herbicidal effect grade: application herbicide amount 320 g/ha; for K: Lolium multiflorum Lam., herbicidal effect grade: 320 g/ha
# Outline: as §2
# [10] = test system: corn; assay: Test Example 4: effect on crop by soil treatment (symbol c); settings: for c (corn) effect on crop grade: application herbicide amount 320 g/ha; for c: corn, effect grade on crop: 320 g/ha
# Outline: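 Sterilized diluvial soil, spot sowing, ~1.5 cm soil cover; greenhouse 25–30° C.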
# [11] = test system: Galium spurium; assay: Test Example 5: herbicidal effect by foliage application, plastic box (symbol Q); settings: 320 g/ha, 3 weeks after application
# Outline: as §1
# [12] = test system: Veronica persica; assay: Test Example 4: herbicidal effect by soil treatment (symbol R); settings: for R (Veronica persica) herbicidal effect grade: application herbicide amount 320 g/ha; for R: Veronica persica, herbicidal effect grade: 320 g/ha
# Outline: as §2
# [13] = test system: Cyperus difformis; assay: Test Example 3: herbicidal effect by foliage application, Wagner pot (symbol E); settings: application herbicide amount 320 g/ha
# Outline: as §3
# [14] = test system: soybean; assay: Test Example 5: effect on crop by foliage application, plastic box (symbol d); settings: 320 g/ha, 3 weeks after application
# Outline: (§4)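 A greenhouse held between 25° C. and 30° C. was used to grow plants sown spot-wise, beneath ~1.5 cm of soil, in boxes of sterilized diluvial soil.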
# [15] = test system: wheat; assay: Test Example 5: effect on crop by foliage application, plastic box (symbol e); settings: 320 g/ha, 3 weeks after application
# Outline: as §4
SMILES,"R: Veronica persica, herbicidal effect grade [1]","G: Setaria viridis, herbicidal effect grade [2]","Herbicidal effect grade, B: Scirpus juncoides [3]",H (Echinochloa crus-galli var. crus-galli) herbicidal effect grade [4],f (beet) effect on crop grade [5],"Effect grade on crop, a: transplanted rice plant [6]",N (Amaranthus retroflexus) herbicidal effect grade [7],"herbicidal effect on D (Leptochloa chinensis), grade 0-5 [8]",K (Lolium multiflorum Lam.) herbicidal effect grade [9],c (corn) effect on crop grade [10],"Q: Galium spurium, herbicidal effect grade [11]",R (Veronica persica) herbicidal effect grade [12],"herbicidal effect on E, grade 0-5 [13]","d: soybean, effect on crop grade [14]","e: wheat, effect on crop grade [15]","R: Veronica persica, herbicidal effect (criteria 0-5) [1]","G: Setaria viridis, herbicidal effect (criteria 0-5) [2]","H: Echinochloa crus-galli var. crus-galli, herbicidal effect grade [4]","f: beet, effect grade on crop [5]","N: Amaranthus retroflexus, herbicidal effect grade [7]",also measured
CON=C(CC1CC(O)=C(c2c(C)cc(C)cc2C)C1=O)C(C)C (stereo not drawn) [1-048],3 (Herbicidal ratio of 40% or higher and lower than 70%),4 (Herbicidal ratio of 70% or higher and lower than 90%),4 (Herbicidal ratio of 70% or higher and lower than 90%),5 (Herbicidal ratio of 90% or more (almost completely withered)),0 (Herbicidal ratio of 5% or lower (almost no effect)),5 (Herbicidal ratio of 90% or more (almost completely withered)),1 (Herbicidal ratio of 5% or higher and lower than 20%),4 (Herbicidal ratio of 70% or higher and lower than 90%),5 (Herbicidal ratio of 90% or more (almost completely withered)),3 (Herbicidal ratio of 40% or higher and lower than 70%),1 (Herbicidal ratio of 5% or higher and lower than 20%),0 (Herbicidal ratio of 5% or lower (almost no effect)),5 (Herbicidal ratio of 90% or more (almost completely withered)),0 (Herbicidal ratio of 5% or lower (almost no effect)),0 (Herbicidal ratio of 5% or lower (almost no effect)),–,–,–,–,–,–
CON=C(CC1CC(O)=C(c2c(C)cc(C)cc2C)C1=O)c1ccccc1 (stereo not drawn) [1-047],0 (Herbicidal ratio of 5% or lower (almost no effect)),1 (Herbicidal ratio of 5% or higher and lower than 20%),0 (Herbicidal ratio of 5% or lower (almost no effect)),3 (Herbicidal ratio of 40% or higher and lower than 70%),0 (Herbicidal ratio of 5% or lower (almost no effect)),1 (Herbicidal ratio of 5% or higher and lower than 20%),0 (Herbicidal ratio of 5% or lower (almost no effect)),3 (Herbicidal ratio of 40% or higher and lower than 70%),3 (Herbicidal ratio of 40% or higher and lower than 70%),0 (Herbicidal ratio of 5% or lower (almost no effect)),0 (Herbicidal ratio of 5% or lower (almost no effect)),0 (Herbicidal ratio of 5% or lower (almost no effect)),0 (Herbicidal ratio of 5% or lower (almost no effect)),0 (Herbicidal ratio of 5% or lower (almost no effect)),0 (Herbicidal ratio of 5% or lower (almost no effect)),–,–,–,–,–,–
CON=C(C)CC1CC(OC(=O)COc2ccc(Br)cc2)=C(c2c(C)cc(C)cc2C)C1=O (stereo not drawn) [1-081],–,–,5 (Herbicidal ratio of 90% or more (almost completely withered)),–,–,5 (Herbicidal ratio of 90% or more (almost completely withered)),–,5 (Herbicidal ratio of 90% or more (almost completely withered)),–,–,–,–,5 (Herbicidal ratio of 90% or more (almost completely withered)),–,–,0 (Herbicidal ratio of 5% or lower (almost no effect)),5 (Herbicidal ratio of 90% or more (almost completely withered)),5 (Herbicidal ratio of 90% or more (almost completely withered)),0 (Herbicidal ratio of 5% or lower (almost no effect)),4 (Herbicidal ratio of 70% or higher and lower than 90%),"K: Lolium multiflorum Lam., herbicidal effect grade [9]: 5 (Herbicidal ratio of 90% or more (almost completely withered)); c: corn, effect grade on crop [10]: 4 (Herbicidal ratio of 70% or higher and lower than 90%); Q: Galium spurium, herbicidal effect (criteria 0-5) [11]: 0 (Herbicidal ratio of 5% or lower (almost no effect)); R: Veronica persica, herbicidal effect grade [12]: 0 (Herbicidal ratio of 5% or lower (almost no effect)); d: soybean, effect on crop (criteria 0-5) [14]: 5 (Herbicidal ratio of 90% or more (almost completely withered)); e: wheat, effect on crop (criteria 0-5) [15]: 4 (Herbicidal ratio of 70% or higher and lower than 90%)"
CON=C(C)CC1CC(OC(=O)C(C)Oc2ccc(Oc3cnc4cc(Cl)ccc4n3)cc2)=C(c2c(C)cc(C)cc2C)C1=O (stereo not drawn) [1-087],–,–,5 (Herbicidal ratio of 90% or more (almost completely withered)),–,–,5 (Herbicidal ratio of 90% or more (almost completely withered)),–,5 (Herbicidal ratio of 90% or more (almost completely withered)),–,–,–,–,5 (Herbicidal ratio of 90% or more (almost completely withered)),–,–,3 (Herbicidal ratio of 40% or higher and lower than 70%),5 (Herbicidal ratio of 90% or more (almost completely withered)),5 (Herbicidal ratio of 90% or more (almost completely withered)),4 (Herbicidal ratio of 70% or higher and lower than 90%),5 (Herbicidal ratio of 90% or more (almost completely withered)),"K: Lolium multiflorum Lam., herbicidal effect grade [9]: 5 (Herbicidal ratio of 90% or more (almost completely withered)); c: corn, effect grade on crop [10]: 3 (Herbicidal ratio of 40% or higher and lower than 70%); Q: Galium spurium, herbicidal effect (criteria 0-5) [11]: 4 (Herbicidal ratio of 70% or higher and lower than 90%); R: Veronica persica, herbicidal effect grade [12]: 0 (Herbicidal ratio of 5% or lower (almost no effect)); d: soybean, effect on crop (criteria 0-5) [14]: 3 (Herbicidal ratio of 40% or higher and lower than 70%); e: wheat, effect on crop (criteria 0-5) [15]: 5 (Herbicidal ratio of 90% or more (almost completely withered))"
CCCC(CC1CC(O)=C(c2c(C)cc(C)cc2C)C1=O)=NOC (stereo not drawn) [1-062],0 (Herbicidal ratio of 5% or lower (almost no effect)),4 (Herbicidal ratio of 70% or higher and lower than 90%),2 (Herbicidal ratio of 20% or higher and lower than 40%),5 (Herbicidal ratio of 90% or more (almost completely withered)),0 (Herbicidal ratio of 5% or lower (almost no effect)),5 (Herbicidal ratio of 90% or more (almost completely withered)),0 (Herbicidal ratio of 5% or lower (almost no effect)),3 (Herbicidal ratio of 40% or higher and lower than 70%),5 (Herbicidal ratio of 90% or more (almost completely withered)),4 (Herbicidal ratio of 70% or higher and lower than 90%),0 (Herbicidal ratio of 5% or lower (almost no effect)),0 (Herbicidal ratio of 5% or lower (almost no effect)),4 (Herbicidal ratio of 70% or higher and lower than 90%),0 (Herbicidal ratio of 5% or lower (almost no effect)),0 (Herbicidal ratio of 5% or lower (almost no effect)),–,–,–,–,–,–
